Source: publication PMC8287028 (Frontiers in Veterinary Science, 2021)
Where “and” joins values, the source holds several entries; their conditions need not be identical. Equal values may be shown once. Read-outs that look alike come from different tables or passages of the source.

Legend:
[1] = system: prothrombin time; assay: Prothrombin time (PT) on citrated plasma of dosed dogs; type: in vivo, dog
Procedure: Coagulation assays were performed on platelet-poor, citrated plasma samples by a reference laboratory (Comparative Coagulation Laboratory, Animal Health Diagnostic Center, Ithaca, NY). […] The assay is configured with a bovine activated Factor X reagent that is added in excess to the test plasma and a chromogenic substrate of Factor Xa (STA Liquid anti-Xa, Diagnostica Stago). Residual, uninhibited Factor Xa cleaves the chromogenic substrate such that the inverse of the color change in the reaction mixture is proportional to the drug concentration in the test plasma. […] Assay controls, consisting of human plasma spiked with apixaban (STA Apixaban Controls, Diagnostica Stago) were analyzed before each batch of test samples to confirm assay performance. The apixaban levels in calibrators and controls are defined by the manufacturer from an internal reference assayed by HPLC-MS. […] A mechanical endpoint method (STA Compact, Diagnostica Stago) and human coagulation reagents were used to measure prothrombin time (Thromboplastin LI, Helena Diagnostics, Beaumont, TX) and activated partial thromboplastin time (Dade Actin FS, Dade Behring, Newark, DE). […] Tissue-factor (1:50,000 final dilution) activated TEG was performed using standard equipment (TEG-5000, Haemonetics, Braintree, MA) as previously reported ([35]), with assays conducted per established guidelines ([36]), with a modification to eliminate the rest time to facilitate rapid sample processing. Thromboelastography assays were conducted by experienced operators using four TEG channels and tracings terminated after maximum amplitude was established. Four values were extracted from TEG tracings: reaction time (R-time), clot formation time (K-time), clot formation angle (alpha), and maximum amplitude (MA).
Pairwise comparisons between continuous variables were conducted with Wilcoxon matched-pairs signed rank test, while comparisons of more than two groups were conducted using the Friedman test with Dunn's post-hoc adjustment. […]

[2] = system: major plasma proteins; assay: Protein binding by ex vivo ultrafiltration of spiked plasma, LC/MS; type: in vitro ADME, dog
Procedure: For each dog a sample of anticoagulated platelet-poor plasma collected at baseline was centrifuged (16,000 g, 5 min, 4°C) and the supernatant filtered with a […] syringe filter. […] One aliquot was centrifuged (16,000 g, 30 min, 4°C) in a molecular exclusion device (Amicon Ultra 30k filter, Millipore-Sigma) to remove the major plasma proteins. The spiked plasma and the ultrafiltrate were then analyzed for apixaban by LC/MS as above. Protein binding (%) was determined as: [Total concentration] – [[…] Unbound concentration]/Total concentration ×100.

[3] = biological target: dog factor Xa; conditions: in vitro, isolated factor Xa, cited from earlier work
[4] = Pharmacokinetics after intravenous apixaban, plasma concentrations by LC/MS; type: in vivo, dog; conditions: dogs; for Vd: read-out: Vd (volume of distribution); for AUC: read-out: AUC (area-under-the-curve); for C0: read-out: C0 (concentration at time zero); for clearance: read-out: CL (systemic clearance) (converted); for half-life: read-out: K10 T½ (elimination half-life) (converted); for MRT: read-out: MRT (mean residence time)
Procedure: All injection durations were identical.
Catheters were flushed with 0.9% saline, without heparin.
Analyses of plots and PK modeling were performed using compartmental methods in standard software (Phoenix, WinNonlin, Certara, St. Louis, MO). One-, 2- and 3-compartment models were fit to the plasma concentration data.

[5] = both sexes, mixed-breed, dog, plasma, iv, 0.18 mg/kg, IV, mean dose 0.18 mg/kg, geometric mean
[6] = both sexes, mixed-breed, dog, plasma, iv, 0.18 mg/kg, IV, mean dose 0.18 mg/kg, mean of 6 dogs
[7] = IV, mean dose 0.18 mg/kg, individual dogs (Dog 1-6), 0.18 mg/kg

SMILES: COc1ccc(-n2nc(C(N)=O)c3c2C(=O)N(c2ccc(N4CCCCC4=O)cc2)CC3)cc1 [apixaban]
- PT versus baseline ([1]; IV 0.18 mg/kg, at 5, 15, 30 and 60 min): significantly prolonged
- concentration required to double the PT from baseline ([1]; IV, estimate from the regression equation line of Figure 2B): 2,485 ng/ml
- PT versus baseline ([1]; PO 0.2 mg/kg, at 4, 6 and 8 h): significantly prolonged
- fraction unbound at 500 ng/ml ([2]; both sexes, mixed-breed, platelet-poor plasma, dog plasma spiked at 500 ng/ml, ultrafiltration, mean of 6 dogs, using 7 ng/ml for the deproteinated samples): 0.014
- apixaban concentration in deproteinated samples ([2]; ultrafiltrate of dog plasma spiked at 500 ng/ml, all samples): < 7 ng/mL
- inhibitor constant (Ki) [3]: 0.78 ng/mL
- Ki ([3]; read-out: inhibitor constant (Ki)): 1.7 nM
- Vd ([4]; both sexes, mixed-breed, dog, in vivo, iv, 0.18 mg/kg, IV, mean dose 0.18 mg/kg, individual dogs (Dog 1-6)): 0.163 L/kg
- AUC [4, 5]: 5620 ng·h/mL
- C0 [4, 5]: 1000 ng/mL
- clearance [4, 5]: 0.52 mL/min/kg
- half-life [4, 5]: 3.9 h
- MRT [4, 5]: 5.6 h
- Vd [4, 5]: 0.175 L/kg
- C0 ([4]; both sexes, mixed-breed, dog, plasma, iv, 0.18 mg/kg, IV, mean dose 0.18 mg/kg, individual dogs (Dog 1-6)): 1210 ng/mL
- AUC [4, 6]: 6030 ng·h/mL
- C0 [4, 6]: 1010 ng/mL
- clearance [4, 6]: 0.563 mL/min/kg
- half-life [4, 6]: ~4.1 h
- MRT [4, 6]: 6 h
- Vd [4, 6]: 0.177 L/kg
- concentration at 24 h ([4]; both sexes, mixed-breed, dog, plasma, IV 0.18 mg/kg, at 24 h, read-out: mean residual plasma concentration): 17 ng/mL
- AUC ([4]; both sexes, mixed-breed, in vivo, IV, mean dose 0.18 mg/kg, one-compartment model, individual dogs (Dog 1-6)): 8140 ng·h/mL
- AUC (area-under-the-curve) ([4]; IV, mean dose 0.18 mg/kg, one-compartment model, individual dogs (Dog 1-6), 0.18 mg/kg): 5,726.9 h*ng/ml and 4,802.6 h*ng/ml and 7,639.4 h*ng/ml and 7,330.9 h*ng/ml and 2,516.3 h*ng/ml
- K10 (first order elimination rate) ([4]; IV, mean dose 0.18 mg/kg, geometric mean): 0.2 h⁻¹
- C0 (concentration at time zero) [4, 7]: 853.9 ng/ml and 1,108.0 ng/ml and 958.3 ng/ml and 1,005.0 ng/ml and 913.4 ng/ml
- CL (systemic clearance) [4, 7]: 0.573 mL/min/kg and 0.683 mL/min/kg and 0.39 mL/min/kg and 0.367 mL/min/kg and 0.348 mL/min/kg and 1.01 mL/min/kg
- K10 (first order elimination rate) [4, 7]: 0.2 1/h (3×) and 0.1 1/h (2×) and 0.4 1/h
- K10 T½ (elimination half-life) [4, 7]: 3.3 h and 4.8 h and 5.9 h and 5.1 h and 1.9 h
- K10 (first order elimination rate) ([4]; IV, mean dose 0.18 mg/kg, mean of 6 dogs): 0.2 h⁻¹
